Assay results reported in US8609674B2, “Potassium channel modulators” (AbbVie Inc., priority 2010, dated 2013).

How the values were obtained:
Assay type in all cases: cell-based
human KCNQ5 = target: T1, human KCNQ5 (Homo sapiens, UniProt Q9NR82); assay: KCNQ5 thallium influx FLIPR TETRA assay; details: for EC50: HEK293 cells stably expressing human KCNQ5, Tl+ influx; for Emax: maximum response relative to 10 μM retigabine (=100%), read-out: KCNQ5 Max. %
T1 construct: expressed in transfected cells; host or cells: HEK293
Procedure: (§1) The following example describes the assay that may be used to identify compounds that activate KCNQ4 or KCNQ5 channels.
(§2) The assays were performed using a FLIPR^TETRA (Molecular Devices, Sunnyvale, Calif.) in 384-well format. HEK293 cells stably expressing human KCNQ4 or KCNQ5 were seeded in 384-well, black-walled, clear-bottomed, poly-D-lysine coated plates (Greiner Bio-One, Germany) at a density of 1.5×10^4 cells per well, 24 hours before the assay. On the assay day, BTC-AM dye was loaded into the cells by replacing the cell culture medium with 30 μL/well of 2.8 μM dye in DPBS. Dye loading was allowed to proceed for 2 hours at room temperature and then cells were washed once in 30 μL/well of assay buffer (in mM: 10 HEPES pH 7.3, 5 glucose, 140 Na-gluconate, 2.5 K-gluconate, 3.6 Ca-gluconate, 2 MgSO4, 0.1 Ouabain) to remove unloaded dye. Cells were incubated in 30 μL of assay buffer before loading onto a FLIPR^TETRA system. Compounds to be assayed were added to the cells as 4× of final concentration in 15 μL of assay buffer and incubated for 4 minutes at room temperature. The influx signal was initiated by adding 15 μL of assay buffer containing 4.2 mM TlNO3 and 7 mM K2SO4. Tl^+ influx signals were recorded for 3 minutes. Tl^+ influx signal was quantified as light unit changes after Tl^+ addition using the “SUM” statistic from the FLIPR^TETRA software. Sums of the responses over basal responses were plotted versus concentrations of test compounds to obtain an EC50 value and the points fit with a nonlinear regression curve using GraphPad Prism software (GraphPad Software Inc., San Diego, Calif.). EC50 values were calculated from the resulting sigmoidal dose-response curves. The maximum response for each test compound was determined relative to the response produced by 10 μM retigabine. The maximum response of retigabine at 10 μM was set at 100%.

human KCNQ4 = target: T2, human KCNQ4 (Homo sapiens, UniProt P56696); assay: KCNQ4 thallium influx FLIPR TETRA assay; details: for EC50: HEK293 cells stably expressing human KCNQ4, Tl+ influx; for Emax: maximum response relative to 10 μM retigabine (=100%), read-out: KCNQ4 Max. %
T2 construct: expressed in transfected cells; host or cells: HEK293
Procedure: as §1, §2

[1] = target: T3, human KCNQ2 and KCNQ3 subunits (KCNQ2/3 channels) (Homo sapiens, UniProt O43525+O43526); assay: KCNQ2/3 thallium influx FLIPR assay (BTC-AM dye); details: for EC50: HEK293 cells stably expressing human KCNQ2 and KCNQ3, Tl+ influx; for Emax: maximum response relative to 10 μM retigabine (=100%), read-out: KCNQ2/3 Max. %
T3 construct: expressed in transfected cells; host or cells: HEK293
Procedure: The following example describes the assay that may be used to identify compounds that activate KCNQ2/3 channels.
HEK293 cells stably expressing human KCNQ2 and KCNQ3 subunits were seeded in 96-well, black-walled, clear-bottomed, poly-D-lysine coated plates (BD Biosciences, Bedford, Mass.) at a density of 1×10^5 cells per well 24 hours before the assay. On the assay day, BTC-AM dye (Invitrogen, Carlsbad, Calif.) was loaded into the cells by replacing the cell culture medium with 55 μL/well of 3 μg/ml dye in Dulbecco's Phosphate Buffered Saline (DPBS) (Invitrogen). Dye loading was allowed to proceed for 2 hours at room temperature and then cells were washed twice with 50 μL/well of assay buffer (in mM: 10 HEPES pH 7.3, 5 glucose, 140 Na-gluconate, 2.5 K-gluconate, 3.6 Ca-gluconate, 2 MgSO4, 0.1 Ouabain) to remove unloaded dye. Cells were incubated in 50 μL of assay buffer before loading onto a FLIPR system (Molecular Devices, Sunnyvale, Calif.). Various concentrations of compounds to be assayed were added to the cells in 50 μL of assay buffer and incubated for 4 minutes. The fluorescence signal was initiated by adding 100 μL of assay buffer containing 6 mM TlNO3 and 10 mM K2SO4. Fluors were excited using the 488-nm line of an argon laser and emission was filtered using a 540±30 nm bandpass filter. Fluorescent signals were recorded for 3 minutes. Sums of the responses over basal responses were plotted versus concentrations of test compounds to obtain an EC50 value and the points fit with a nonlinear regression curve using GraphPad Prism software (GraphPad Software Inc., San Diego, Calif.). EC50 values were calculated from the resulting sigmoidal dose-response curves. The maximum response for each test compound was determined relative to the response produced by 10 μM retigabine. The maximum response of retigabine at 10 μM was set at 100%.

SMILES | EC50 (human KCNQ5) [µM] | Emax (human KCNQ5) [%] | EC50 (human KCNQ4) [µM] | Emax (human KCNQ4) [%] | EC50 [1] [µM] | Emax [1] [%]
CC1(C)[C@H]2CC[C@@H](CC(=O)Nn3c(C(F)(F)F)nc4ccccc4c3=O)[C@@H]1C2 [Example 7, 2-[(1S,2S,5S)-6,6-dimethylbicyclo[3.1.1]hept-2-yl]-N-[4-oxo-2-(trifluoromethyl)quinazolin-3(4H)-yl]acetamide] | > 30 | 52 | > 30 | 6 | 0.1 to 0.5 | 58
CC(C)c1nc2ccccc2c(=O)n1NC(=O)CCSC[C@@H]1CC[C@H]2C[C@@H]1C2(C)C [Example 11, 3-({[(1S,2R,5S)-6,6-dimethylbicyclo[3.1.1]hept-2-yl]methyl}sulfanyl)-N-[4-oxo-2-(propan-2-yl)quinazolin-3(4H)-yl]propanamide] | > 30 | 714 | 1 to 10 | 293 | 0.1 to 0.5 | 123
CC1(C)[C@H]2CC[C@@H](CC(=O)Nn3c(C4CC4)nc4cc(F)ccc4c3=O)[C@@H]1C2 [Example 3, N-(2-cyclopropyl-7-fluoro-4-oxoquinazolin-3(4H)-yl)-2-[(1S,2S,5S)-6,6-dimethylbicyclo[3.1.1]hept-2-yl]acetamide] | > 30 | 36 | > 30 | -2 | < 0.1 | 99
CC(SC[C@@H]1CC[C@H]2C[C@@H]1C2(C)C)C(=O)Nn1c(C(C)C)nc2ccccc2c1=O (stereo partly drawn) [Example 9, 2-({[(1S,2R,5S)-6,6-dimethylbicyclo[3.1.1]hept-2-yl]methyl}sulfanyl)-N-[4-oxo-2-(propan-2-yl)quinazolin-3(4H)-yl]propanamide] | > 30 | 49 | > 30 | 23 | 0.1 to 0.5 | 49

Continued, values first:

EC50 (human KCNQ5) [µM] | Emax (human KCNQ5) [%] | EC50 (human KCNQ4) [µM] | Emax (human KCNQ4) [%] | EC50 [1] [µM] | Emax [1] [%] | SMILES
> 30 | 10 | 1 to 10 | 46 | 0.1 to 0.5 | 111 | CC(C)c1nc2sccc2c(=O)n1NC(=O)C[C@@H]1CC[C@H]2C[C@@H]1C2(C)C [Example 20, 2-[(1S,2S,5S)-6,6-dimethylbicyclo[3.1.1]hept-2-yl]-N-[4-oxo-2-(propan-2-yl)thieno[2,3-d]pyrimidin-3(4H)-yl]acetamide]
> 30 | 335 | > 30 | 122 | 1 to 10 | 121 | CC(C)c1nc2ccccc2c(=O)n1NC(=O)COCC[C@@H]1CC[C@H]2C[C@@H]1C2(C)C [Example 10, 2-{2-[(1S,2S,5S)-6,6-dimethylbicyclo[3.1.1]hept-2-yl]ethoxy}-N-[4-oxo-2-(propan-2-yl)quinazolin-3(4H)-yl]acetamide]
> 30 | 19 | > 30 | 4 | > 30 | 8 | CC(C)c1nc2ccc(Cl)cc2c(=O)n1NC(=O)C[C@@H]1CC[C@H]2C[C@@H]1C2(C)C [Example 18, N-[6-chloro-4-oxo-2-(propan-2-yl)quinazolin-3(4H)-yl]-2-[(1S,2S,5S)-6,6-dimethylbicyclo[3.1.1]hept-2-yl]acetamide]
> 30 | 9 | > 30 | 5 | 1 to 10 | 99 | CCc1nc2sccc2c(=O)n1NC(=O)C[C@@H]1CC[C@H]2C[C@@H]1C2(C)C [Example 6, 2-[(1S,2S,5S)-6,6-dimethylbicyclo[3.1.1]hept-2-yl]-N-(2-ethyl-4-oxothieno[2,3-d]pyrimidin-3(4H)-yl)acetamide]
